{"source": "patent US6406529B1", "about": "“Method of reducing dentin sensitivity and compositions therefor” (MCG Research Institute, priority 1998, dated 2002)", "origin": "cited, not measured here", "conditions": "3% w/v applied to dentin; in vitro and in vivo"}
{"smiles": "O=C([O-])C(=O)O.[K+]", "note": "[monopotassium-monohydrogen oxalate]", "values": [{"measurement": "Hydraulic conductance of dentin", "result": "reduced"}]}
